Source: patent publication US20040053872A1, “New sequences” (priority 2000, published 2004)
Where two headings read alike, the source gives them in different places. Strand notation (5' to 3'): a small letter for the sugar, then the base; units joined by * are phosphorothioate-linked, units joined directly phosphodiester-linked; [ ] holds rarer units or linkages, { } end groups; capitals alone tell only the bases. r = 2'-OH (RNA)

How the values were obtained:
Assay type in all cases: biochemical
[1] = test system: panel of recombinant HIV 1 subtype B RTs; experiment: DNAp assay: inhibition of second strand DNA synthesis, whole RT panel; settings: all RTs of the panel; summary of table 2; read-out: IC50, range over all RTs studied (second strand DNA synthesis)
Description: (§1) The flourimetric DNA-polymerase assay used is available from Cavidi Tech AB, Uppsala, Sweden. It is based on a short DNA primer analogous to a part of the tRNA^Lys3 sequence. The template is a single stranded deoxynucleotide template with part of the sequence complementary to the primer. The enzyme reaction is dependent on all four deoxynucleotide bases. The thymidine triphosphate is, however, replaced by BrdUTP. The amount of BrdUMP incorporated into DNA during the polymerase reaction is detected with an alkaline phosphatase (Ap) conjugated anti-BrdU monoclonal antibody. An Ap substrate, 4-methylumbelliferyl phosphate, is finally used for fluorimetric product detection.
(ii) Protocol for determination of inhibition of second strand synthesis on a variable DNA template: The inhibition studies were performed in a modified DNA polymerase assay. […] The enzyme reaction was initiated by addition of 75 μl aliquots of the enzyme/inhibitor mixture to each well of a microtiter plate containing 75 μl DNA polymerase reaction mixture per well.
The results, which are summarised in table 2, were rather similar to those found for inhibition of reverse transcription (table 1).

[2] = molecular target: T1, recombinant HIV-1 RT E478Q (Human immunodeficiency virus type 1 group M subtype B, UniProt P03366, E1077Q); experiment: RT assay: inhibition of RNA dependent DNA polymerisation (modified Lenti RT assay); settings: read-out: IC50 of indicated inhibitor in RT assay
T1 construct: performed by recombinant HIV-1 RT:s with defined
Experimental: (§2) The flourimetric RT assay (Cavidi® Lenti RT activity kit), available from Cavidi Tech, Uppsala, Sweden, was used for the determination of RT activity. In short, poly(rA) covalently bound to the wells of a 96 well microtiter plate serves as template for the incorporation of 5-bromodeoxyuridine 5′-triphosphate (BrdUTP) during the reverse transcription step at 33° C. The amount of bromodeoxyuridine monophosphate (BrdUMP) incorporated into DNA is detected with an alkaline phosphatase (Ap) conjugated, anti-BrdU monoclonal antibody. An Ap substrate, 4-methylumbelliferyl phosphate, is finally used for fluorimetric product detection.
(§3) (i) Protocol for determination of inhibition of RNA dependent DNA polymerisation: The inhibition studies were performed in a modified Lenti RT assay. The inhibitors were serially diluted in five steps, whereupon enzyme dilution was added and the enzyme/inhibitor mixtures were incubated for 30 minutes at 33° C. The enzyme reaction was initiated by addition of 100 μl aliquots of the enzyme/inhibitor mixture to each well of a microtiter plate containing 100 μl RT reaction mixture per well. The polymerase reaction was allowed to proceed for 3 hours at 33° C., whereupon the reaction was terminated by a wash of the plate. […] The amount of RT used was standardised to an activity corresponding to 90-130 pg (7-10×10^−16 mol) reference HIV-1 RT per well
(§4) The capacity of the indicated substances to inhibit the enzymes in a panel of recombinant HIV 1 subtype B RTs was studied according to “Protocol for determination of inhibition of RNA dependent DNA polymerisation” (protocol (i) above). The final nucleotide substrate (BrdUTP) concentration was 0.35 μM, and the primer (odT22) amount was 0.03 ng per well.
The RT reaction time used was 3 hours and the results are depicted in FIG. 8 (A-C).

[3] = molecular target: T2, recombinant HIV-1 RT K103N/E478Q (Human immunodeficiency virus type 1 group M subtype B, UniProt P03366, E1077Q/K702N); settings: second strand DNA synthesis, preincubation 30 minutes at 33° C., 3 hours, read-out: IC50 of indicated inhibitor in DNAp assay
T2 construct: performed by recombinant HIV-1 RT:s with defined
Description: as §1
(§5) (ii) Protocol for determination of inhibition of second strand synthesis on a variable DNA template: The inhibition studies were performed in a modified DNA polymerase assay. The inhibitors were serially diluted in five steps, enzyme dilution was added and the enzyme/inhibitor mixtures were incubated for 30 minutes at 33° C. The enzyme reaction was initiated by addition of 75 μl aliquots of the enzyme/inhibitor mixture to each well of a microtiter plate containing 75 μl DNA polymerase reaction mixture per well. The polymerase reaction was allowed to proceed for 3 hours at 33° C. whereupon the reaction was terminated by a wash of the plate. […] The amount of RT used was standardised to an activity corresponding to 40-60 pg (3.3-5.0×10^−16 mol) reference HIV-1 RT per well.
(§6) The capacity of the indicated substances to inhibit each enzyme in a panel of recombinant HIV 1 subtype B RTs was studied according to “Protocol for determination of inhibition of second strand synthesis on variable DNA template” (protocol (ii) above).

[4] = molecular target: T3, recombinant HIV-1 RT L100I (Human immunodeficiency virus type 1 group M subtype B, UniProt P03366, L699I); settings: second strand DNA synthesis, preincubation 30 minutes at 33° C., 3 hours, read-out: IC50 of indicated inhibitor in DNAp assay
T3 construct: performed by recombinant HIV-1 RT:s with defined
Description: as §1, §5, §6

[5] = molecular target: T1, recombinant HIV-1 RT E478Q; settings: second strand DNA synthesis, preincubation 30 minutes at 33° C., 3 hours, read-out: IC50 of indicated inhibitor in DNAp assay
Description: as §1, §5, §6

[6] = molecular target: T2, recombinant HIV-1 RT K103N/E478Q; experiment: RT assay: inhibition of RNA dependent DNA polymerisation (modified Lenti RT assay); settings: read-out: IC50 of indicated inhibitor in RT assay
Experimental: as §2
as §3, with “The inhibitors were serially diluted in five steps, whereupon enzyme dilution was added and the enzyme/inhibitor mixtures were incubated for 30 minutes at 33° C.” left out
as §4

[7] = molecular target: T4, recombinant HIV-1 RT T215Y (Human immunodeficiency virus type 1 group M subtype B, UniProt P03366, T814Y); experiment: as above; settings: read-out: IC50 of indicated inhibitor in RT assay
T4 construct: performed by recombinant HIV-1 RT:s with defined
Experimental: as §2
as §3, with “The inhibitors were serially diluted in five steps, whereupon enzyme dilution was added and the enzyme/inhibitor mixtures were incubated for 30 minutes at 33° C.” left out
as §4

[8] = molecular target: T3, recombinant HIV-1 RT L100I; experiment: as above; settings: read-out: IC50 of indicated inhibitor in RT assay
Experimental: as §2
as §3, with “The inhibitors were serially diluted in five steps, whereupon enzyme dilution was added and the enzyme/inhibitor mixtures were incubated for 30 minutes at 33° C.” left out
as §4

[9] = molecular target: recombinant HIV-1 RT, ref RT (HIV type B, clone BH 10) (Human immunodeficiency virus type 1 group M subtype B, UniProt P03366); experiment: as above; set-up: performed by recombinant HIV-1 RT:s with defined; settings: enzyme/inhibitor preincubated 30 minutes at 33° C., BrdUTP 0.35 μM, odT22 0.03 ng per well, 3 hours, read-out: IC50 of indicated inhibitor in RT assay
Experimental: as §2
(i) Protocol for determination of inhibition of RNA dependent DNA polymerisation: The inhibition studies were performed in a modified Lenti RT assay. The inhibitors were serially diluted in five steps, whereupon enzyme dilution was added and the enzyme/inhibitor mixtures were incubated for 30 minutes at 33° C. The enzyme reaction was initiated by addition of 100 μl aliquots of the enzyme/inhibitor mixture to each well of a microtiter plate containing 100 μl RT reaction mixture per well. The polymerase reaction was allowed to proceed for 3 hours at 33° C., whereupon the reaction was terminated by a wash of the plate. […] The amount of RT used was standardised to an activity corresponding to 90-130 pg (7-10×10^−16 mol) reference HIV-1 RT per well […]

[10] = enzyme/inhibitor preincubated 30 minutes at 33° C., BrdUTP 0.35 μM, odT22 0.03 ng per well, 3 hours
[11] = RT and inhibitor added directly to the assay mixture without preincubation

## substance 198: 15-mer RNA phosphorothioate with the base sequence of tRNALys3 anticodon stem and loop, SEQ ID NO:7 (rC*rA*rG*rA*rC*rU*rU*rU*rU*rA*rA*rU*rC*rU*rG) [reference compound]
[1]
  IC50: 550 to 1000 nM
[2]; [10]
  IC50: 320 nM
[3]
  IC50: 1000 nM
[4]
  IC50: 220 nM
[5]
  IC50: 1000 nM
[6]; [10]
  IC50: 1100 nM
[7]; [10]
  IC50: 340 nM
[8]; [10]
  IC50: 450 nM
[9]
  IC50: 470 nM

## substance 199: 35-mer RNA molecule having the sequence set out in SEQ ID NO:5; similar to SEQ ID NO:4 with some naturally occurring nucleotide derivatives (GCUCAGNCGGNAGAGCANCAGACUUUUAANCUGAN; RNA, backbone, methylation of C and the base at N not given here; naturally occurring modified nucleosides at n positions)
[1]
  IC50: 36 to 51 nM
[2]; [11]
  IC50: 11 nM
[2]; [10]
  IC50: 6 nM
[3]
  IC50: 51 nM
[4]
  IC50: 36 nM
[5]
  IC50: 34 nM
[6]; [11]
  IC50: 9.8 nM
[6]; [10]
  IC50: 10 nM
[7]; [11]
  IC50: 9.3 nM
[7]; [10]
  IC50: 11 nM
[8]; [11]
  IC50: 7.4 nM
[8]; [10]
  IC50: 10 nM
[9]
  IC50: 6.6 nM
